24 molecules from patent US10435399B2, “HDAC6 inhibitory heterocyclic compound” (TAKEDA PHARMACEUTICAL COMPANY LIMITED, priority 2017, dated 2019) can be followed below.

For this test, the target named is T1, HDAC6 enzyme (Homo sapiens, UniProt Q9UBN7).
T1 construct: transducing full length HDAC6 gene into Sf-9 insect cells; GST; purchased SignalChem; host or cells: Sf-9 insect cells
T1 sequence (Q9UBN7 1-1215): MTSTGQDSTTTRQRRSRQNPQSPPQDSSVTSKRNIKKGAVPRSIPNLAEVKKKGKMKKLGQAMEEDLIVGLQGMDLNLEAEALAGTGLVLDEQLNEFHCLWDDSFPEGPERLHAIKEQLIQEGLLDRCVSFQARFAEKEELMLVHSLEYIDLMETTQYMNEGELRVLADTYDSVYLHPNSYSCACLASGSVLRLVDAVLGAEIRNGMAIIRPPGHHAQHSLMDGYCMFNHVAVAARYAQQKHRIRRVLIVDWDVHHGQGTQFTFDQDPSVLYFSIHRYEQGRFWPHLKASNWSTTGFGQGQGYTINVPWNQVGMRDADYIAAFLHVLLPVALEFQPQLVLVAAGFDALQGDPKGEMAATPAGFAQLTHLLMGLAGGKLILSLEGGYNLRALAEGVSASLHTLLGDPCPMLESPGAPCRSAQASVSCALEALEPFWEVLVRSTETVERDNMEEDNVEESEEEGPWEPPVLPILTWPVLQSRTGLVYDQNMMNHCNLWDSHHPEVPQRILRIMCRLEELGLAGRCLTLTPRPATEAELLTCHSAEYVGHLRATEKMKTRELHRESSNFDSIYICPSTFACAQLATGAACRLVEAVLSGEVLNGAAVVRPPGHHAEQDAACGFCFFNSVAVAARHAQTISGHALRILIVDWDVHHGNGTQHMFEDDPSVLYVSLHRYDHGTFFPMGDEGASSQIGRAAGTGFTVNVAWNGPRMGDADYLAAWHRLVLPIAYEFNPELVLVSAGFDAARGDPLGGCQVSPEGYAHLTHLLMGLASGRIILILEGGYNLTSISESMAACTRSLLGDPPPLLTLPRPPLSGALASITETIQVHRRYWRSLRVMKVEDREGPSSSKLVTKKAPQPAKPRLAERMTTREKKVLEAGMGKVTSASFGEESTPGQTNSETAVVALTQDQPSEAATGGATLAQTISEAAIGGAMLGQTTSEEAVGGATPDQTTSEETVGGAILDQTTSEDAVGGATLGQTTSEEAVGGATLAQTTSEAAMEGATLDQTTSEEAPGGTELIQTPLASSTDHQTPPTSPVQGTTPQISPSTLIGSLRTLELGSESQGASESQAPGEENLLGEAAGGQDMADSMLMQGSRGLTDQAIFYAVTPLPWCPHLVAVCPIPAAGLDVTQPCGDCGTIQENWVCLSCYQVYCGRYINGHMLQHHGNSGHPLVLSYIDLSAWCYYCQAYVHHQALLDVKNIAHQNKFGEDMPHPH
Description: HDAC6 enzyme inhibitory activity (HDAC-Glo I/II Assay kit). The format is biochemical. Conditions: 10 μM; wells without enzyme = 100% inhibition; read-out: HDAC6 inhibitory rate (%) (10 μM). A digest of the protocol: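 Inhibition is calculated as relative activity, taking luminescence in enzyme-free wells as complete inhibition. The enzyme, full-length and GST-purified after Sf-9 expression, was exposed to compound for 60 min at room temperature before a 20 min HDAC-Glo reaction.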
On to `O=C1c2cc(-c3nnc(C(F)F)o3)cc(F)c2CN1C[C@@H]1CC(F)(F)CN1S(=O)(=O)CC(F)(F)F` [Example 344, 6-(5-(difluoromethyl)-1,3,4-oxadiazol-2-yl)-2-(((2S)-4,4-difluoro-1-((2,2,2-trifluoro-ethyl)sulfonyl)pyrrolidin-2-yl)methyl)-4-fluoroiso-indolin-1-one], for which the inhibition at 10 µM is 100%. On to `O=C1c2cc(-c3nnc(C(F)F)o3)cc(F)c2CN1C[C@@H]1CC(F)(F)CN1S(=O)(=O)c1cccc(F)c1` [Example 345, 2-(((2S)-4,4-difluoro-1-((3-fluorophenyl)sulfonyl)-pyrrolidin-2-yl)methyl)-6-(5-(difluoromethyl)-1,3,4-oxadiazol-2-yl)-4-fluoro-isoindolin-1-one], for which the inhibition at 10 µM worked out at 99%. Regarding `O=C1c2cc(-c3nnc(C(F)F)o3)cnc2CN1Cc1ccncc1` [Example 346, 3-(5-(difluoromethyl)-1,3,4-oxadiazol-2-yl)-6-(pyridin-4-ylmethyl)-6,7-dihydro-5H-pyrrolo[3,4-b]pyridin-5-one], the inhibition at 10 µM turned out to be 94%. For `O=C1c2cc(-c3nnc(C(F)F)o3)cnc2CN1C1(c2ccc(F)cc2)CC1` [Example 347, 3-(5-(difluoromethyl)-1,3,4-oxadiazol-2-yl)-6-(1-(4-fluorophenyl)cyclopropyl)-6,7-dihydro-5H-pyrrolo[3,4-b]pyridin-5-one] the value was 98%; for `O=C1c2cc(-c3nnc(C(F)F)o3)cnc2CN1Cc1ccc(F)cc1F` [Example 348, 6-(2,4-difluorobenzyl)-3-(5-(difluoromethyl)-1,3,4-oxadiazol-2-yl)-6,7-dihydro-5H-pyrrolo-[3,4-b]pyridin-5-one], 99%; for `Cc1cc(CN2Cc3ncc(-c4nnc(C(F)F)o4)cc3C2=O)no1` [Example 349, 3-(5-(difluoromethyl)-1,3,4-oxadiazol-2-yl)-6-((5-methyl-1,2-oxazol-3-yl)methyl)-6,7-dihydro-5H-pyrrolo[3,4-b]pyridin-5-one], 99%. The same measure for `O=C1c2cc(-c3nnc(C(F)F)o3)cnc2CN1C1(c2ccccc2F)CC1` [Example 350, 3-(5-(difluoromethyl)-1,3,4-oxadiazol-2-yl)-6-(1-(2-fluorophenyl)cyclopropyl)-6,7-dihydro-5H-pyrrolo[3,4-b]pyridin-5-one]: 99%. The same measure for `O=C1c2cc(-c3nnc(C(F)F)o3)cnc2CN1Cc1ccccc1F` [Example 351, 3-(5-(difluoromethyl)-1,3,4-oxadiazol-2-yl)-6-(2-fluoro-benzyl)-6,7-dihydro-5H-pyrrolo[3,4-b]pyridin-5-one]: 98%; for `CC(C)(C)OC(=O)N1CC(F)(F)C[C@@H]1CN1Cc2c(F)cc(-c3nnc(C(F)F)o3)cc2C1=O` [Example 352, tert-butyl (2R)-2-((6-(5-(difluoromethyl)-1,3,4-oxadiazol-2-yl)-4-fluoro-1-oxo-1,3-dihydro-2H-isoindol-2-yl)methyl)-4,4-difluoropyrrolidine-1-carboxylate]: 99%; for `O=C1c2cc(-c3nnc(C(F)F)o3)cnc2CN1Cc1cc(F)cc(F)c1` [Example 353, 6-(3,5-difluorobenzyl)-3-(5-(difluoromethyl)-1,3,4-oxadiazol-2-yl)-6,7-dihydro-5H-pyrrolo[3,4-b]pyridin-5-one]: 98%. As for `O=C1c2cc(-c3nnc(C(F)F)o3)cc(F)c2CN1C[C@H]1CC(F)(F)CN1` [Example 354, 6-(5-(difluoromethyl)-1,3,4-oxadiazol-2-yl)-2-(((2R)-4,4-difluoropyrrolidin-2-yl)-methyl)-4-fluoroisoindolin-1-one], the inhibition at 10 µM was 92%. Consider `O=C1c2cc(-c3nnc(C(F)F)o3)cnc2CN1Cc1cccc(C(F)(F)F)c1` [Example 355], for which the inhibition at 10 µM was 100%.

As for `O=C1c2cc(-c3nnc(C(F)F)o3)cc(F)c2CN1C[C@H]1CC(F)(F)CN1S(=O)(=O)C1CC1` [Example 356, 2-(((2R)-1-(cyclopropyl-sulfonyl)-4,4-difluoro-pyrrolidin-2-yl)methyl)-6-(5-(difluoromethyl)-1,3,4-oxadiazol-2-yl)-4-fluoro-isoindolin-1-one], the inhibition at 10 µM amounted to 101%. The same measure for `COc1ccccc1CN1Cc2ncc(-c3nnc(C(F)F)o3)cc2C1=O` [Example 357, 3-(5-(difluoromethyl)-1,3,4-oxadiazol-2-yl)-6-(2-methoxybenzyl)-6,7-dihydro-5H-pyrrolo[3,4-b]-pyridin-5-one]: 98%; for `O=C1c2cc(-c3nnc(C(F)F)o3)cnc2CN1Cc1ccccc1OC(F)F` [Example 358, 6-(2-(difluoromethoxy)-benzyl)-3-(5-(difluoro-methyl)-1,3,4-oxadiazol-2-yl)-6,7-dihydro-5H-pyrrolo-[3,4-b]pyridin-5-one]: 102%; for `O=C1c2cc(-c3nnc(C(F)F)o3)cnc2CN1Cc1cccnc1` [Example 359, 3-(5-(difluoromethyl)-1,3,4-oxadiazol-2-yl)-6-(pyridin-3-ylmethyl)-6,7-dihydro-5H-pyrrolo[3,4-b]pyridin-5-one]: 97%. As to `O=C1c2cc(-c3nnc(C(F)F)o3)cc(F)c2CN1[C@@H]1CCOC[C@H]1NCC(F)(F)F` [Example 360, 6-(5-(difluoromethyl)-1,3,4-oxadiazol-2-yl)-4-fluoro-2-((3S,4R)-3-((2,2,2-trifluoro-ethyl)amino)tetrahydro-2H-pyran-4-yl)isoindolin-1-one], the inhibition at 10 µM turned out to be 103%.

For `O=C1c2cc(-c3nnc(C(F)F)o3)cc(F)c2CN1[C@@H]1COCC[C@H]1NCC(F)(F)F` [Example 361, 6-(5-(difluoromethyl)-1,3,4-oxadiazol-2-yl)-4-fluoro-2-((3S,4R)-4-((2,2,2-trifluoro-ethyl)amino)tetrahydro-2H-pyran-3-yl)isoindolin-1-one], the inhibition at 10 µM stood at 101%. As for `O=C1c2cc(-c3nnc(C(F)F)o3)cnc2CN1Cc1ccccn1` [Example 362, 3-(5-(difluoromethyl)-1,3,4-oxadiazol-2-yl)-6-(pyridin-2-yl-methyl)-6,7-dihydro-5H-pyrrolo[3,4-b]pyridin-5-one], the inhibition at 10 µM was determined as 99%.

Take `CC(C)(C)OC(=O)N[C@H]1COCC[C@H]1N1Cc2c(F)cc(-c3nnc(C(F)F)o3)cc2C1=O` [Example 363, tert-butyl ((3R,4R)-4-(6-(5-(difluoromethyl)-1,3,4-oxadiazol-2-yl)-4-fluoro-1-oxo-1,3-dihydro-2H-isoindol-2-yl)tetrahydro-2H-pyran-3-yl)carbamate]: the inhibition at 10 µM worked out at 99%. On to `N[C@H]1COCC[C@H]1N1Cc2c(F)cc(-c3nnc(C(F)F)o3)cc2C1=O` [Example 364, 2-((3R,4R)-3-amino-tetrahydro-2H-pyran-4-yl)-6-(5-(difluoromethyl)-1,3,4-oxadiazol-2-yl)-4-fluoroisoindolin-1-one], for which the inhibition at 10 µM amounted to 87%.

For the molecule `O=C1c2cc(-c3nnc(C(F)F)o3)cc(F)c2CN1[C@@H]1CCOC[C@@H]1NC(=O)C(F)(F)C(F)(F)F` [Example 365, N-((3R,4R)-4-(6-(5-(difluoromethyl)-1,3,4-oxadiazol-2-yl)-4-fluoro-1-oxo-1,3-dihydro-2H-isoindol-2-yl)tetrahydro-2H-pyran-3-yl)-2,2,3,3,3-pentafluoropropanamide], the inhibition at 10 µM worked out at 101%. As to `CC(F)(F)C(=O)N[C@H]1COCC[C@H]1N1Cc2c(F)cc(-c3nnc(C(F)F)o3)cc2C1=O` [Example 366, N-((3R,4R)-4-(6-(5-(difluoromethyl)-1,3,4-oxadiazol-2-yl)-4-fluoro-1-oxo-1,3-dihydro-2H-isoindol-2-yl)tetrahydro-2H-pyran-3-yl)-2,2-difluoropropanamide], the inhibition at 10 µM was found to be 97%. For the molecule `O=C1c2cc(-c3nnc(C(F)F)o3)cnc2CN1[C@@H]1CCCC[C@H]1NCC(F)(F)F` [Example 367, 3-(5-(difluoromethyl)-1,3,4-oxadiazol-2-yl)-6-((1R,2R)-2-((2,2,2-trifluoroethyl)amino)-cyclohexyl)-6,7-dihydro-5H-pyrrolo[3,4-b]pyridin-5-one], the inhibition at 10 µM is 101%.
